Experimental data: the supplement of paper PMC3493320

system: NCI-H295R; assay: IC50 (antiproliferative, ATP content); conditions: 48 h
Summary of the method: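 In 1536-well plates, 1500 adrenocortical carcinoma cells per well were grown overnight in serum-free, ITS-supplemented DMEM before compounds were pin-transferred at 8 final concentrations (0.6 nM to 46 µM). After 48 h at 37 °C and 5% CO2, CellTiter-Glo luminescence was read following 20 min at room temperature and normalised to vehicle and positive-control wells. IC50 values came from logistic curve fits, with compounds lacking any concentration response listed as above the top dose.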

SMILES | IC50 [µM]
Cl.N[C@H]1C(O)O[C@H](CO)[C@@H](O)[C@@H]1O (some centres undefined) | > 46
CN1CCN(C2=Nc3cc(F)ccc3Cc3ccccc32)CC1 | > 46
Clc1ccccc1-c1nc(-c2ccncc2)no1 | > 46
C=C[C@]1(C)C[C@@H](OC(=O)CSCCN(CC)CC)[C@]2(C)[C@@H]3C(=O)CC[C@@]3(CC[C@@H]2C)[C@@H](C)[C@@H]1O | > 46
COC(=O)CC[C@H](N)C(=O)O | > 46
CC(O)COc1ccccc1 (centres undefined) | > 46
CCN(CC)CCNC(C(=O)OCCC(C)C)c1ccccc1 (centres undefined) | > 46
CNC(=O)C(N)CSC(C)C1=C(C)c2cc3[n-]c(cc4nc(cc5[n-]c(cc1n2)c(C)c5CCC(=O)O)C(CCC(=O)O)=C4C)c(C)c3C(C)SCC(N)C(=O)NC.[Fe+2] (centres undefined) | > 46
Cc1cc(OI)c(C(C)C)cc1-c1cc(C(C)C)c(OI)cc1C | > 46
CCC(=O)c1c(O)cc(O)cc1O | > 46
O=C(CC)O[C@@]1([C@@]2=CC=CC=C2)[C@H](C)CN(C)CC1 | > 46
CC1=CC[C@@H](CC1)[C@@](O)(C)CC\C=C(/C)C | > 46
[O]=[Bi][O][Bi]=[O] | > 46
CNCCCN1c2ccccc2CCc2ccccc21.Cl | > 46
CC[C@H](C)[C@H](NC(=O)[C@H](Cc1ccccc1)NC(=O)[C@H](C)NC(=O)[C@H](CC(=O)O)NC(=O)[C@H](CCCCN)NC(=O)[C@H](CO)NC(=O)[C@@H]1CCCN1C(=O)[C@@H]1CCC(=O)N1)C(=O)NCC(=O)N[C@@H](CC(C)C)C(=O)N[C@@H](CCSC)C(N)=O | > 46
O.O=C(O)[C@@H]1[C@H]2C[C@H]3c4[nH]c5ccccc5c4CCN3C[C@@H]2CC[C@@H]1O | > 46
Cc1ccc(=O)n(-c2ccccc2)c1 | > 46
CCC(=O)O[C@]1(C(=O)SCF)[C@H](C)C[C@H]2C3C[C@H](F)C4=CC(=O)C=C[C@]4(C)[C@@]3(F)[C@@H](O)C[C@@]21C (some centres undefined) | > 46
CC(C)c1ccc2oc3nc(N)c(C(=O)O)cc3c(=O)c2c1 | > 46
CCCCC(CC)CCC(CC(C)C)OS(=O)(=O)[O-].[Na+] (centres undefined) | > 46
O=S(=O)(O)O.Oc1ccc(C(O)CNCCCCCCNCC(O)c2ccc(O)c(O)c2)cc1O (centres undefined) | > 46
CN1CCCC(CC2c3ccccc3Sc3ccccc32)C1.Cl (centres undefined) | > 46

SMILES | IC50 [µM]
CCn1nc(C(=O)O)c(=O)c2cc3c(cc21)OCO3 | > 46
CC(=O)CCCCn1c(=O)c2c(ncn2C)n(C)c1=O | > 46
CC[C@H]1OC(=O)[C@H](C)C(=O)[C@H](C)[C@@H](O[C@@H]2O[C@H](C)C[C@H](N(C)C)[C@H]2O)[C@](C)(OC)C[C@@H](C)C(=O)[C@H](C)[C@H]2N(CCCCn3cnc(-c4cccnc4)c3)C(=O)O[C@]12C | > 46
CCOC(=O)C(C)(C)Oc1ccc(Cl)cc1 | > 46
Cc1cccc(Nc2ncccc2C(=O)O)c1C | > 46
CN1C(C)(C)CCCC1(C)C.O=C(O)[C@@H](O)[C@H](O)C(=O)O | > 46
CCN1CCC[C@H]1CNC(=O)c1cc(S(N)(=O)=O)ccc1OC | > 46
CC(S)C(=O)NCC(=O)O (centres undefined) | > 46
C[N+]1(C)[C@@H]2CC[C@H]1C[C@@H](OC(=O)C(CO)c1ccccc1)C2.O=[N+]([O-])[O-] (some centres undefined) | > 46
O=C1[C@@]([C@](CC5)(C)[C@]4([H])C([C@H]5O[C@@H]3[C@H](O[C@H]7[C@H](O)[C@@H](O)[C@H](O)[C@@H]([C@](O)=O)O7)[C@@H](O)[C@H](O)[C@@H]([C@@](O)=O)O3)(C)C)([H])[C@](CC4)(C)[C@@]2(C)C([C@]([C@@]6(C)CC2)([H])C[C@@](CC6)(C)[C@@](O)=O)=C1 | > 46
Nc1ccc(C(=O)Oc2ccccc2)c(O)c1 | > 46
O=c1[n-]c(=O)n(Cl)c(=O)n1Cl.[Na+] | > 46
Cc1ccccc1C(OCCN(C)C)c1ccccc1.O=C(O)CC(O)(CC(=O)O)C(=O)O (centres undefined) | > 46
O=C(C2)N([C@]([H])1[C@@]([O-])=O)[C@]2([H])O\C1=C/CO.[Li+] | > 46
CCC1=C(C)CN(C(=O)NCCc2ccc(S(=O)(=O)NC(=O)N[C@H]3CC[C@H](C)CC3)cc2)C1=O | > 46
COc1ccc(Cc2nccc3cc(OC)c(OC)cc23)cc1OC.Cl | > 46
CCCc1nc(C(C)(C)O)c(C(=O)OCc2oc(=O)oc2C)n1Cc1ccc(-c2ccccc2-c2nnn[nH]2)cc1 | > 46
CC1(C)C(C=C(Cl)Cl)C1C(=O)OCc1cccc(Oc2ccccc2)c1 (centres undefined) | > 46
O=C(O[C@@H]5C4CCN(C5)CC4)N2[C@@H]([C@]3=CC=CC=C3)C1=CC=CC=C1CC2.Cl | > 46
C=CC[N+]1([C@H]2C[C@H]3[C@@H]4CC[C@H]5C[C@H](O)[C@@H](N6CCOCC6)C[C@]5(C)[C@H]4CC[C@]3(C)[C@H]2OC(C)=O)CCCC1.[Br-] | > 46
CCOC(=O)c1cccc(N)c1.CS(=O)(=O)O | > 46
C=CC[N@@+]1(C)CC[C@]23c4c5ccc(O)c4O[C@H]2C(=O)CC[C@@]3(O)[C@H]1C5.[I-] | > 46
